Experimental data from patent publication US9429521B2, “Plant phenometrics systems and methods and devices related thereto” (BOARD OF TRUSTEES OF MICHIGAN STATE UNIVERSITY, priority 2012, dated 2016).

Legend:
[1] = tested on: Arabidopsis thaliana plants (col-0); assay: Discontinuous chlorophyll fluorescence imaging of ΦII with red actinic light after coronatine spraying; type: in vivo; conditions: 5 μM sprayed, monochromatic (red) actinic light, 1, 4, 8 and 24 hours after treatment
Procedure: Arabidopsis thaliana plants (col-0) were grown on soil at 22° C. day temperature and 18° C. night temperature, 50% humidity and an intensity of μmol photons m^−2 s^−1 with an 16:8 day:night cycle. Chlorophyll a fluorescence images of steady state (FS) and the fluorescence maximum at steady state (FM′) were collected at growth light intensity and in the absence or presence of saturating illumination, respectively. These images were used to generate images of ΦII, a measure of photosynthetic efficiency on the day of and after treatment (by spraying) with 5 μM coronatine (cor) or water (control). Coronatine is a compound produced by a bacterial plant pathogen. As a chemical analog of jasmonic acid, it elicits a stress response, which includes differential induction and repression of classes of photosynthesis associated genes (PAGs). […] For discontinuous imaging, plants were maintained in the growth chamber where they were treated and transferred to and from the fluorescence imager for measurements. For in situ imaging, the plants were allowed to readjust after transfer to the new chamber with white LED lighting for at least 24 hours prior to treatment and were kept in the chamber for the duration of experiment.

[2] = tested on: Arabidopsis thaliana plants (col-0); assay: Continuous in situ chlorophyll fluorescence imaging of ΦII with white actinic LED after coronatine spraying; type: in vivo; conditions: 5 μM sprayed
Procedure: Arabidopsis thaliana plants (col-0) were grown on soil at 22° C. day temperature and 18° C. night temperature, 50% humidity and an intensity of μmol photons m^−2 s^−1 with an 16:8 day:night cycle. Chlorophyll a fluorescence images of steady state (FS) and the fluorescence maximum at steady state (FM′) were collected at growth light intensity and in the absence or presence of saturating illumination, respectively. These images were used to generate images of ΦII, a measure of photosynthetic efficiency on the day of and after treatment (by spraying) with 5 μM coronatine (cor) or water (control). Coronatine is a compound produced by a bacterial plant pathogen. As a chemical analog of jasmonic acid, it elicits a stress response, which includes differential induction and repression of classes of photosynthesis associated genes (PAGs). To determine if there were immediate and/or sustained effects on photosynthesis, imaging was performed discontinuously in an imager that used monochromatic (red) actinic light or continuously in situ in a growth chamber outfitted with a white actinic LED imaging system. For discontinuous imaging, plants were maintained in the growth chamber where they were treated and transferred to and from the fluorescence imager for measurements. For in situ imaging, the plants were allowed to readjust after transfer to the new chamber with white LED lighting for at least 24 hours prior to treatment and were kept in the chamber for the duration of experiment.
Imaging in situ with white LED actinic illumination minimized the stress of moving a plant from its growth environment to the instrument and with automated image capture facilitated collection of data at higher time resolution (FIG. 10). […] The effect is also heterogeneous, more strongly observed in some leaves or not occurring at all in other (younger) leaves.

In the case of CC[C@H]1C=C(C(=O)N[C@@]2(C(=O)O)C[C@@H]2CC)[C@H]2CCC(=O)[C@H]2C1 [coronatine], the “ΦII (photosynthetic efficiency), treated vs untreated plants” value [1] was “no differences between treated and untreated plants”, the “photosynthetic efficiency (ΦII) effect” value ([2]; in situ imaging, second day after treatment (more recent studies, not shown)) was “the effect was not observed” and the “photosynthetic efficiency (ΦII)” value ([2]; white LED in situ imaging, early morning on the day after treatment (21 hours)) was “large decrease in photosynthetic efficiency”. The “photosynthetic efficiency (ΦII) effect” value ([2]; white LED in situ imaging, mid-morning on the day after treatment (25 hours)) was “almost completely disappears”.
